Laboratory results taken from publication PMC6440464 (PeerJ, 2019).
Like-named read-outs stand apart in the source and are kept apart here.

Assay: Pharmacokinetics study after separate oral administration in rats (HPLC-MS of plasma)
Type: in vivo, Sprague-Dawley rats
Conditions: male, Sprague-Dawley, rat, plasma, 50 mg/kg; for Tmax / AUC(0-t) / CL/F / Cmax / MRT last / half-life: po, rat plasma; for Tmax: read-out: Tmax (converted); for CL/F: read-out: CLz/F; for Cmax: read-out: Cmax; for half-life: read-out: t1/2z
Experimental: A total of 15 SPF Sprague-Dawley rats (SD, male, 190–210 g) were provided by Sino-British Sippr/BK Lab Animal Company Ltd. (Shanghai, China). The rats were kept in standard conditions (22–26 °C; 40–60% relative humidity; 12 h light/dark cycle). Throughout the rearing period, the animals had access to food and water ad libitum. Animal experiments were conducted in accordance with the standard ethical guidelines of the Laboratory Animal Management Committee of Jiangsu Province (SYXK (SU) 2016-0011).
Following 1 week of adaptation, the rats were fasted for about 12 h before dosing, with free access to water. […] After administration of the first dose, blood samples were taken from the retro-orbital vein at 0, 5, 15, 30, 60, 90, 120, 180, 240, 360, 480, and 1,440 min and collected in heparinized tubes. The samples were centrifuged at 3,500 rpm for 10 min at 4 °C and the plasma was stored at −80 °C until analysis.
An Agilent 1,200 series HPLC system (Agilent Technologies, Waldbronn, Germany) equipped with a quaternary pump on-line degasser, auto-sampler and column oven, and an SL G1946D quadruple mass spectrometer (Agilent Technologies, Santa Clara, CA, USA) equipped with an electrospray ionization (ESI) source, were used for separation and detection. Data were acquired and analyzed using Agilent ChemStation Software Version A.01.00 (Agilent Technologies, Santa Clara, CA, USA).
The separation was carried out with an Amethyst C18-H column (150 × 4.6 mm, 5 μm, Sepax Technologies, Newark, DE, USA) with a guard column SB-C18 (10 × 4.6 mm, 5 μm, Phenomenex Technologies, Torrance, USA) at a constant temperature of 25 °C.
The mass spectra were acquired using ESI interfaced to a single quadrupole mass spectrometer. The ionization conditions were as follows: drying gas (N2) flow rate of 11 L/min, drying gas temperature of 350 °C, nebulizing gas (N2) pressure of 35 psi, capillary voltage of 3,500 V, quad temperature of 100 °C, and fragment voltage of 110 V. A series of m/z were monitored using a timed program according to the retention times and characteristic ions for the corresponding HPLC-MS peak obtained by scanning from m/z 100–1,000 in the standard sample.
Briefly, an aliquot of plasma sample (100 μL) was spiked with 5% formic acid (10 μL) in centrifuge tube. Subsequently, hydrochloric acid (2 mol/L, 10 μL) and IS solution (960.00 ng/mL, 20 μL) were added. Then ethyl acetate/n-butyl alcohol (1:1 v/v; 1,000 μL) was used to extract the components. The samples were then homogenized by vortex mixing and centrifuged for 10 min at 14,000 rpm. After centrifugation, 800 μL of supernatant was transferred to another centrifuge tube and the sample was evaporated to dryness. The residues were dissolved in 100 μL of methanol and centrifuged for 10 min at 12,000 rpm. 50 μL of the supernatant was transferred to the vial and an aliquot of 5 μL was injected into the HPLC-MS system for analysis.
DAS 2.0 (Chinese Pharmacological Association, Shanghai, China) was used to calculate the pharmacokinetic parameters using the non-compartment model, including the area under curve (AUC), mean residence time (MRT), half-life ( t1/2z), clearance rate (CL), maximum plasma concentration (Cmax), and time (Tmax). All results are expressed as mean ± standard deviation (SD). One way analysis of variance followed by […] was used for comparison of different groups using Graph pad prism 5 software. A p-value of <0.05 was considered statistically significant.

[1] = IQ group (oral IQ 50 mg/kg), labelled substance = analyte, mean of 5 rats
[2] = IQ group: oral IQ 50 mg/kg, mean ± SD, n = 5
[3] = QG group (oral QG 50 mg/kg), labelled substance = analyte, mean of 5 rats
[4] = QG group: oral QG 50 mg/kg, mean ± SD, n = 5
[5] = Qr group (oral Qr 50 mg/kg), labelled substance = analyte, mean of 5 rats
[6] = Qr group: oral Qr 50 mg/kg, mean ± SD, n = 5

With `O=c1c(O)c(-c2ccc(O)c(O)c2)oc2cc(O)cc(O)c12` [Qr, Quercetin] the concentration at 5 min (oral, QG group (oral QG 50 mg/kg), 5 min, individual rats NO. 1-5, read-out: Plasma concentrations) was 0 µg/mL, the concentration at 15 min (oral, QG group (oral QG 50 mg/kg), 15 min, individual rats NO. 1-5, read-out: Plasma concentrations) was 0 µg/mL and the concentration at 30 min (oral, QG group (oral QG 50 mg/kg), 30 min, individual rats NO. 1-5, read-out: Plasma concentrations) was 0 µg/mL. It also gave a concentration at 240 min (oral, Qr group (oral Qr 50 mg/kg), 240 min, individual rats NO. 1-5, read-out: Plasma concentrations) of 2.59 µg/mL, a Tmax (IQ group (oral IQ 50 mg/kg), labelled substance = analyte, individual rats No1-No5) of 0.5 h and an AUC(0-t) (IQ group (oral IQ 50 mg/kg), labelled substance = analyte, mean of 5 rats, read-out: AUC(0-t) (converted)) of 36.9 µg·h/mL. It also gave a CL/F [1] of 1.44 L/h/kg, a Cmax [1] of 6.6 µg/mL and an MRT last (IQ group (oral IQ 50 mg/kg), labelled substance = analyte, mean of 5 rats, read-out: MRT(0-t) (converted)) of 7.04 h. The Tmax [1] was 0.7 h, the half-life [1] was 6.31 h and the AUC(0-t) (IQ group: oral IQ 50 mg/kg, mean ± SD, n = 5, read-out: AUC0−t (converted)) was 36.9 µg·h/mL. It also gave a Cmax [2] of 6.6 ± 2.67 µg/mL, an MRT last (IQ group: oral IQ 50 mg/kg, mean ± SD, n = 5, read-out: MRT0−t (converted)) of 7.04 h and a Tmax [2] of 0.7 h. For the same molecule, the half-life [2] was 6.31 ± 5.65 h, the Tmax (QG group (oral QG 50 mg/kg), labelled substance = analyte, individual rats No1-No5) was 4 h and the AUC(0-t) (QG group (oral QG 50 mg/kg), labelled substance = analyte, mean of 5 rats, read-out: AUC(0-t) (converted)) was 58.4 µg·h/mL. It also gave a CL/F [3] of 0.84 L/h/kg, a Cmax [3] of 5.17 µg/mL and a Tmax [3] of 6 h. It also gave a half-life [3] of 6.09 h, an AUC(0-t) (QG group: oral QG 50 mg/kg, mean ± SD, n = 5, read-out: AUC0−t (converted)) of 58.4 µg·h/mL and a Cmax [4] of 5.17 ± 1.85 µg/mL. It also gave a Tmax [4] of 6 h, a half-life [4] of 6.09 ± 2.53 h and an MRT last (Qr group (oral Qr 50 mg/kg), labelled substance = analyte, individual rats No1-No5, read-out: MRT(0-t) (converted)) of 6.33 h. For the same molecule, the half-life (Qr group (oral Qr 50 mg/kg), labelled substance = analyte, individual rats No1-No5) was 7.67 h, the AUC(0-t) (Qr group (oral Qr 50 mg/kg), labelled substance = analyte, mean of 5 rats, read-out: AUC(0-t) (converted)) was 43.2 µg·h/mL and the CL/F [5] was 1.2 L/h/kg. The Cmax [5] was 7.47 µg/mL, the Tmax [5] was 0.9 h and the half-life [5] was 7.29 h. It also gave an AUC(0-t) (Qr group: oral Qr 50 mg/kg, mean ± SD, n = 5, read-out: AUC0−t (converted)) of 43.2 µg·h/mL, a Cmax [6] of 7.47 ± 2.63 µg/mL and a Tmax [6] of 0.9 h. For the same molecule, the half-life [6] was 7.29 ± 0.905 h.
